# Assay results as given in PMC9569447 (International Journal of Molecular Sciences, 2022).
# Numbered stars: 1 amine (or outer) side, 2 acyl side, 3 side chain; on linkers, the order of the positions; unused ones are H or OH. Bridge positions count the residues as written; N and C are the ends. Square brackets hold non-standard residues; d marks the D form. Side chains are listed from the residue outwards. Peptide text beside a SMILES is read from it. * marks the point of attachment. PEG8 = NCCOCCOCCOCCOCCOCCOCCOCCOCCC(=O)O; Palmitoyl = CCCCCCCCCCCCCCCC(=O)*; hCys = N[C@@H](CCS)C(=O)O; X1 = O=C(CC[*:2])[*:1]
# What was measured:
# hOXTR = molecular target: T1, hOXTR (Homo sapiens, UniProt P30559); experiment: In vitro functional assay at the OXT receptor (Ca2+ flux, fluorometric imaging plate reader); assay type: cell-based; details: ratio of EC50 values hOXTR/hV2R
# T1 construct: expressed in transfected cells
# T1 sequence (P30559 1-389): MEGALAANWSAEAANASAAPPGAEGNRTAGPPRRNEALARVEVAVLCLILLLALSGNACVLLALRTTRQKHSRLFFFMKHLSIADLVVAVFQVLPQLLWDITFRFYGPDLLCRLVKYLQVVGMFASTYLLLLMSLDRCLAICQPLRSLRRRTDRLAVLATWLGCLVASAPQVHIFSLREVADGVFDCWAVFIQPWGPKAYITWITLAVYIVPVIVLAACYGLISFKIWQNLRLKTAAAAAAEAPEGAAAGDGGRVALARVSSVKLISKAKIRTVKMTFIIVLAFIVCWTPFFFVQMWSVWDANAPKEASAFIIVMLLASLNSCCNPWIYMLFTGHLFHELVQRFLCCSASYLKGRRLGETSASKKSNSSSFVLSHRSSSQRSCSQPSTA
# Description: In a typical experimental protocol, stably transfected Chinese hamster ovary (CHO) hOTR NFAT bLac cells were plated at a density of 10,000 cells/well in a 384-well plate in growth medium (Dulbecco’s modified Eagle’s medium + Glutamax (Thermo Fisher Scientific, Waltham, MA, USA), 10% dialyzed fetal bovine serum). The next day calcium-sensitive, fluo-4 dye (Invitrogen, Carlsbad, CA, USA) and probenecid (Invitrogen; 2.5 mM) was dissolved in 20 mL warm dye loading buffer (Hanks’ balanced salt solution with calcium and magnesium, 20 mM Hepes, pH 7.4) and added to each well. Plates were incubated for 60–120 min in a 37 °C cell incubator to allow cells to uptake the dye. […] After dye-loading, the cell plates were placed on the fluorometric imaging plate reader. A total of […] of test compound was added to the […] of dye on the cells, and intracellular Ca^2+ was monitored for 90 s. Intracellular Ca^2+ concentrations were calculated as the maximum increase over basal levels. Responses were normalized to control responses. Data were analyzed by curve fitting.
# in vivo = details: male, Sprague Dawley, rat, sc
# [1] = tested on: diet-induced obese (DIO) Sprague Dawley rats; experiment: Dose escalation study: body weight, food and water intake; assay type: in vivo, rat
# Excerpt: Male DIO Sprague Dawley rats (n = 4) were fed 60% HF diet (formula: D12492; Research Diets, Inc., New Brunswick, NJ, USA; 5.21 kcal/g) for 16 weeks prior to the start of the study. Rats were changed to being singly housed and allowed to acclimate for at least one week prior to the start of this study. Animals averaged 844.15 ± 99.95 g at baseline. Baseline measures of body weight, food intake, and water intake were taken for 6 days before drug administration began. Doses for the dose escalation study included 1, 2, 5, 10, 20, 50, and 100 nmol/kg. Body weight, food and water intake were assessed just prior to the start of the dark cycle.
# UCP1 = experiment: Gene expression of UCP1 in IWAT and IBAT (qRT-PCR); assay type: in vivo, rat
# Excerpt: IWAT and IBAT were homogenized using a TissueLyser LT (Qiagen, Hilden, Germany). RNA was extracted from the tissue lysates using the RNeasy Lipid Mini Kit (mfg. # 74804; Qiagen, Hilden, Germany) and reverse transcribed using the high-capacity cDNA kit (mfg. # 4368814; Applied Biosystems, Waltham, MA, USA). qRT-PCR was completed on the mRNA samples using the Applied Biosystems StepOnePlus System (Applied Biosystems, Waltham, MA, USA). All samples were normalized to the cycle threshold value of 18S mRNA. The following TaqMan® probes (Applied Biosystems, Waltham, MA, USA) were used in this study: 18S (cat. # Hs99999901_s1), UCP1 (cat. # Rn00562126_m1), and Cox8b (cat. # Rn00562884_m1). Analysis was completed using the delta CT method.
smiles,measurement,setting,value
CCCCCCCCCCCCCCCC(=O)NCCOCCOCCOCCOCCOCCOCCOCCOCCC(=O)NCCCC[C@H](NC(=O)CNC(=O)[C@@H]1CCSCCC(=O)N[C@@H](Cc2ccc(O)cc2)C(=O)N[C@@H]([C@@H](C)CC)C(=O)N[C@@H](CCC(N)=O)C(=O)N[C@@H](CC(N)=O)C(=O)N1)C(=O)NCC(N)=O [ASK2131] (YIQN[hCys]GK([PEG8-Palmitoyl])G-NH2; linker N-5 via X1),Ratio hOXTR/hV2R,hOXTR,3.06
same,half-life,in vivo,2.3 h
same,2-day averaged food intake reduction relative to baseline,"[1]; DIO rats, at doses < 2 nmol/kg and > 5 nmol/kg",20–25%
same,loss in body weight compared to baseline,"[1]; DIO rats, once daily sc doses rising every two days from 1 to 100 nmol/kg, average per rat over the treatment period",8.4%
same,decrease in body weight compared to baseline,"[1]; at 2 nmol/kg, after only four treatments",~ 4%
same,adverse response,"[1]; one rat with severe diarrhea was terminated and excluded, result in words",No other animals treated with ASK2131 showed any signs of an adverse response
same,water intake,"[1]; with increased dosing of ASK2131, result in words",not significantly different from baseline
same,"gene expression (UCP1, Cox8b) in comparison to the vehicle treated group","UCP1; IWAT and IBAT, result in words",none of the examined genes showed a significant response
same,"UCP1 expression in IBAT, mean rank difference (MRD), ASK2131 relative to OXT treatment","UCP1; interscapular brown adipose tissue, qRT-PCR normalized to 18S, p = 0.011",−12.5
same,"UCP1 expression in IWAT, mean difference (MD), ASK2131 relative to OXT treatment","UCP1; qRT-PCR normalized to 18S, 95% CI −4.23 to 0.42, p = 0.014",−2.32
